Reference: ChEMBL document CHEMBL1201862, “PubChem BioAssay data set” (2004)
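These data come from cells grown in 96-well plates and exposed to compound for 48 hours at five concentrations. Abbreviation: GI50, concentration required for 50% inhibition of growth.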 The source made the active and inactive calls. Cut-off read from the data, not from the text of the source: active = GI50 up to about 1.1 µM and inactive = higher.

What was measured:
Experiment in all cases: NCI tumour cell line growth inhibition, 48 h
NCI-H460 = tested on: NCI-H460
U-251 = tested on: U-251
SF-539 = tested on: SF-539
CCRF-CEM = tested on: CCRF-CEM
NCI-H522 = tested on: NCI-H522
HCT-116 = tested on: HCT-116
MOLT-4 = tested on: MOLT-4
SK-OV-3 = tested on: SK-OV-3
HCT-15 = tested on: HCT-15
SNB-75 = tested on: SNB-75
SK-MEL-28 = tested on: SK-MEL-28
KM12 = tested on: KM12
NCI-H23 = tested on: NCI-H23
OVCAR-8 = tested on: OVCAR-8
LOX IMVI = tested on: LOX IMVI
OVCAR-3 = tested on: OVCAR-3
OVCAR-5 = tested on: OVCAR-5
Malme-3M = tested on: Malme-3M
SF-268 = tested on: SF-268
UO-31 = tested on: UO-31

SMILES | GI50 (NCI-H460) | GI50 (U-251) | GI50 (SF-539) | GI50 (CCRF-CEM) | GI50 (NCI-H522) | GI50 (HCT-116) | GI50 (MOLT-4) | GI50 (SK-OV-3) | GI50 (HCT-15) [µM] | GI50 (SNB-75) | GI50 (SK-MEL-28) | GI50 (KM12) | GI50 (NCI-H23) | GI50 (OVCAR-8) | GI50 (LOX IMVI) | GI50 (OVCAR-3) | GI50 (OVCAR-5) | GI50 (Malme-3M) | GI50 (SF-268) | GI50 (UO-31)
Cc1c2cnccc2c(C)c2c1c1ccccc1n2CCCCCCNCc1ccccc1 | 0.538 µM (active) | 2.05 µM (inactive) | 1.87 µM (inactive) | 0.489 µM (active) | 2.15 µM (inactive) | 0.649 µM (active) | 0.167 µM (active) | 3.8 µM (inactive) | 1.31 | 2.05 µM (inactive) | 2.38 µM (inactive) | 1.21 µM (inactive) | 1.91 µM (inactive) | 0.883 µM (active) | 1.07 µM (active) | 1.87 µM (inactive) | 1.75 µM (inactive) | 2.44 µM (inactive) | 1.41 µM (inactive) | 1.99 µM (inactive)
O=C1C(Cl)N(c2ccccc2)C1c1c[nH]c2ccccc12 (configuration not stated) | > 100 µM (inactive) | > 100 µM (inactive) | > 100 µM (inactive) | > 100 µM (inactive) | > 100 µM (inactive) | > 100 µM (inactive) | > 100 µM (inactive) | > 100 µM (inactive) |  | > 100 µM (inactive) | > 100 µM (inactive) | > 100 µM (inactive) | > 100 µM (inactive) | > 100 µM (inactive) |  | > 100 µM (inactive) | 46 µM (inactive) | > 100 µM (inactive) | > 100 µM (inactive) | 65.6 µM (inactive)
c1ccc2cc3n[se]nc3cc2c1 |  | > 100 µM (inactive) | 37.6 µM (inactive) | 32.5 µM (inactive) | > 100 µM (inactive) |  | 75.5 µM (inactive) | > 100 µM (inactive) | > 100 | 56.9 µM (inactive) | > 100 µM (inactive) | > 100 µM (inactive) | 39.7 µM (inactive) | > 100 µM (inactive) | > 100 µM (inactive) |  | > 100 µM (inactive) | > 100 µM (inactive) | > 100 µM (inactive) | 55.8 µM (inactive)
COC(OC)C1OC(CO)C(n2cc(F)c(=O)[nH]c2=O)C1O (configuration not stated) | > 100 µM (inactive) | > 100 µM (inactive) | > 100 µM (inactive) | > 100 µM (inactive) | > 100 µM (inactive) | > 100 µM (inactive) | > 100 µM (inactive) | > 100 µM (inactive) | > 100 | > 100 µM (inactive) | > 100 µM (inactive) | > 100 µM (inactive) | > 100 µM (inactive) | > 100 µM (inactive) | > 100 µM (inactive) | > 100 µM (inactive) | > 100 µM (inactive) |  | > 100 µM (inactive) | > 100 µM (inactive)
COc1ccc2c(c1)CC1Cc3ccccc3CCN1C2 (configuration not stated) | 38.9 µM (inactive) | 76 µM (inactive) | 31.1 µM (inactive) | 98.6 µM (inactive) | 15.3 µM (inactive) | 40.1 µM (inactive) | 80.5 µM (inactive) | 20.5 µM (inactive) | 61.2 | > 100 µM (inactive) | > 100 µM (inactive) | 21.6 µM (inactive) | 70.3 µM (inactive) | > 100 µM (inactive) | 20 µM (inactive) | 35.1 µM (inactive) | 22.6 µM (inactive) | 42.3 µM (inactive) | > 100 µM (inactive) | 37.2 µM (inactive)
COc1nc2ccc(CNc3ccc(C(=O)NC(CCC(=O)O)C(=O)O)cc3)cc2nc1OC (configuration not stated) | > 100 µM (inactive) | > 100 µM (inactive) |  | 23.2 µM (inactive) | > 100 µM (inactive) |  | 18.8 µM (inactive) | > 100 µM (inactive) | 53.1 | > 100 µM (inactive) | > 100 µM (inactive) | > 100 µM (inactive) | > 100 µM (inactive) | > 100 µM (inactive) | 32.8 µM (inactive) | > 100 µM (inactive) | > 100 µM (inactive) | 90.8 µM (inactive) | > 100 µM (inactive) | > 100 µM (inactive)
C/C(=C1/N=C(c2cc([N+](=O)[O-])ccc2Cl)N(c2ccc(Br)cc2)C1=O)c1cc2ccccc2oc1=O | 26.3 µM (inactive) | 48.3 µM (inactive) | 30.1 µM (inactive) | 16.5 µM (inactive) | 10.6 µM (inactive) | 24.5 µM (inactive) | 20.2 µM (inactive) | 90.4 µM (inactive) | 8.22 | 33.8 µM (inactive) | 60.8 µM (inactive) | 21.8 µM (inactive) | 38.3 µM (inactive) | 81.8 µM (inactive) | 17.3 µM (inactive) | 49.2 µM (inactive) | > 100 µM (inactive) | 34.8 µM (inactive) | 39.6 µM (inactive) | 23.7 µM (inactive)
